Assay results: ChEMBL document CHEMBL5241119, “Hydroxypyrone derivatives in drug discovery: from chelation therapy to rational design of metalloenzyme inhibitors” (RSC Med Chem, 2022)

Assays:
[1] = target: Amine oxidase [flavin-containing] B (Homo sapiens, UniProt P27338); assay: Inhibition of human MAO-B
Glycine max = assay: Inhibition of soybean 5-LOX relative to control
Stromelysin-1 [2] = target: T1, Stromelysin-1 (Homo sapiens, UniProt P08254); assay: Inhibition of human MMP-3 at 100 uM relative to control
Target sequence in this assay (P08254 100-477 limits assumed): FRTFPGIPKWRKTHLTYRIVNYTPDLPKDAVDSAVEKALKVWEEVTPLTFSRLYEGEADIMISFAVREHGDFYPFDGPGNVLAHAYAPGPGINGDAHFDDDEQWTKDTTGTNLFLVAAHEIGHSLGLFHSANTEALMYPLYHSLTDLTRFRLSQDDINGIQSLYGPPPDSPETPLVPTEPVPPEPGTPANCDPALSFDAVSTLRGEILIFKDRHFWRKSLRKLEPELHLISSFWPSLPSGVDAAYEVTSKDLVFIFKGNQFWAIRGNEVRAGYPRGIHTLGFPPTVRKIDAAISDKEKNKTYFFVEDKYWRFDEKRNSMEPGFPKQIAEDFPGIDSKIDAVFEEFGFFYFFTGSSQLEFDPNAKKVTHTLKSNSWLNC

[3] = target: Interstitial collagenase (Homo sapiens) (UniProt P03956); assay: Inhibition of human MMP-1 at 100 uM relative to control
Stromelysin-1 [4] = target: T1, Stromelysin-1; assay: Inhibition of MMP-3 (unknown origin) by Colorimetric assay
Target sequence in this assay (P08254 whole entry): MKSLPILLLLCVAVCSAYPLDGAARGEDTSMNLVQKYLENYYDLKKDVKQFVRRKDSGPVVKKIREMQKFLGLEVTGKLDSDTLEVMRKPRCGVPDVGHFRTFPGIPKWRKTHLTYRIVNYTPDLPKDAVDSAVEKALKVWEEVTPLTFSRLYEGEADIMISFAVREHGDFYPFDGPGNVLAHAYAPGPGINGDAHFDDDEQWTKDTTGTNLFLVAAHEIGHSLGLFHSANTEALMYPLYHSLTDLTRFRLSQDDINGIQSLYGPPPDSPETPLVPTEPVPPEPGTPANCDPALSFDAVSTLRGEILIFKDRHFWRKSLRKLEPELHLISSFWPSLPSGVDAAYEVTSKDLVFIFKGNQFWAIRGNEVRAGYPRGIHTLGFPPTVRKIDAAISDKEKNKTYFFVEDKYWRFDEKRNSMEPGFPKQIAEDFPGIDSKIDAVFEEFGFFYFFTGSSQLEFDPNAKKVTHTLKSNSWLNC

Stromelysin-1 [5] = target: T1, Stromelysin-1; assay: Inhibition of MMP-3 (unknown origin) by fluorescence based assay
Target sequence in this assay (P08254 whole entry): as above

[6] = target: Polymerase acidic protein (Influenza A virus (A/Puerto Rico/8/1934(H1N1))) (UniProt P03433); assay: Inhibition of Influenza A virus N-terminal domain of PA endonuclease relative to control; conditions: concentration not given here
[7] = target: T2, Macrophage metalloelastase (Homo sapiens, UniProt P39900); assay: Inhibition of human MMP-12 relative to control; set-up: concentration or dose not given beside the values; conditions: concentration not given here
Target sequence in this assay (P39900 106-470 limits assumed): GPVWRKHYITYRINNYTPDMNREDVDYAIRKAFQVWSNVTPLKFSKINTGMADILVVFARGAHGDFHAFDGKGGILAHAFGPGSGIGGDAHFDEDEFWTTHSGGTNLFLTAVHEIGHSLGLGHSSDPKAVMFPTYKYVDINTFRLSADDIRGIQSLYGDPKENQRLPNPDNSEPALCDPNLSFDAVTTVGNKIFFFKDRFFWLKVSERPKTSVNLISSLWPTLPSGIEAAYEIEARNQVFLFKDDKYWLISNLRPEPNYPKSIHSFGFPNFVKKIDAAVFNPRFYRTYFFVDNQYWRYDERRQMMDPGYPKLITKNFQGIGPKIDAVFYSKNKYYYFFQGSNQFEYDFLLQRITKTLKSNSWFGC

[8] = Inhibition of NDM-1 (unknown origin) relative to control; set-up: concentration or dose not given beside the values; conditions: Bacteria; concentration not given here
[9] = Therapeutic index, ratio of CC50 for HEK293 cells to EC50 for Escherichia coli expressing VIM-2; type: toxicity; conditions: human, read-out: Ratio CC50/EC50
Pseudomonas aeruginosa = assay: Inhibition of Pseudomonas aeruginosa Metallo-beta-lactamase VIM-2 at 50 uM relative to control
[10] = Inhibition of Pseudomonas aeruginosa Metallo-beta-lactamase VIM-2
[11] = target: T2, Macrophage metalloelastase; assay: Inhibition of human MMP-12
Target sequence in this assay (P39900 whole entry): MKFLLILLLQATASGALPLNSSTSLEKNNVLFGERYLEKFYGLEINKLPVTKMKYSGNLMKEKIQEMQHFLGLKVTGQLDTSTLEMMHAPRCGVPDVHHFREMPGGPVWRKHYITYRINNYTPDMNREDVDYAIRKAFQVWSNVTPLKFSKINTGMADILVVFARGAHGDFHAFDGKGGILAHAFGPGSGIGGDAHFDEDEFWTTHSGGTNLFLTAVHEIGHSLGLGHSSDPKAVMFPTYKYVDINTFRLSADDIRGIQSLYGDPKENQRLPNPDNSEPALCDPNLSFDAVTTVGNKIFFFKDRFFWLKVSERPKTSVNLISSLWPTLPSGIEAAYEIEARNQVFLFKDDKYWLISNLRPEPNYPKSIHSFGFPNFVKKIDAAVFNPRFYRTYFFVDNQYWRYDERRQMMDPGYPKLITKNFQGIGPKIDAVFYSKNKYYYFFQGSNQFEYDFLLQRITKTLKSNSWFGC

Collagenase 3 = Collagenase 3 (Homo sapiens, UniProt P45452); assay: Inhibition of human MMP-13
Matrilysin = target: T3, Matrilysin (Homo sapiens, UniProt P09237); assay: Inhibition of human MMP-7
T3 sequence (P09237 whole entry): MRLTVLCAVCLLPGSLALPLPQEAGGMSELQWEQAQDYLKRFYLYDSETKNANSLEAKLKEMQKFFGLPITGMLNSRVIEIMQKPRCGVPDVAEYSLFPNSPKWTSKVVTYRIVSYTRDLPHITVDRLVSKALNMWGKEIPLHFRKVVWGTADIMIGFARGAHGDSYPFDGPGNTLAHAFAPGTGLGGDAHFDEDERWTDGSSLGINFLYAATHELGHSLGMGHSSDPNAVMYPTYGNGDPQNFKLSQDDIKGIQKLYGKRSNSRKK

Neutrophil collagenase [12] = target: T4, Neutrophil collagenase (Homo sapiens, UniProt P22894); assay: Inhibition of human MMP-8
Target sequence in this assay (P22894 whole entry): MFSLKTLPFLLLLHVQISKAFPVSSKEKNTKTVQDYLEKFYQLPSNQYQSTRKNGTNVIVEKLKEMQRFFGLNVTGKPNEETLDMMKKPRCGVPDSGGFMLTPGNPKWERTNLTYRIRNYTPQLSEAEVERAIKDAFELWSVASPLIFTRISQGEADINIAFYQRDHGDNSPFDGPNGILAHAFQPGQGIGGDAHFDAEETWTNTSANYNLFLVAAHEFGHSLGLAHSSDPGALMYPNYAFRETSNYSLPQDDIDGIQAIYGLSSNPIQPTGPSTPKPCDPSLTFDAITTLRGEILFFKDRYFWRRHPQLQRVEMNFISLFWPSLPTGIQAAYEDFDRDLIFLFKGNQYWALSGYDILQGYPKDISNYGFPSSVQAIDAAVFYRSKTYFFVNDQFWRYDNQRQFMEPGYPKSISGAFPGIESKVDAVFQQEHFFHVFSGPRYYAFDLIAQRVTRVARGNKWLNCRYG

[13] = target: T5, Matrix metalloproteinase-9 (Homo sapiens, UniProt P14780); assay: Inhibition of human MMP-9
T5 sequence (P14780 whole entry): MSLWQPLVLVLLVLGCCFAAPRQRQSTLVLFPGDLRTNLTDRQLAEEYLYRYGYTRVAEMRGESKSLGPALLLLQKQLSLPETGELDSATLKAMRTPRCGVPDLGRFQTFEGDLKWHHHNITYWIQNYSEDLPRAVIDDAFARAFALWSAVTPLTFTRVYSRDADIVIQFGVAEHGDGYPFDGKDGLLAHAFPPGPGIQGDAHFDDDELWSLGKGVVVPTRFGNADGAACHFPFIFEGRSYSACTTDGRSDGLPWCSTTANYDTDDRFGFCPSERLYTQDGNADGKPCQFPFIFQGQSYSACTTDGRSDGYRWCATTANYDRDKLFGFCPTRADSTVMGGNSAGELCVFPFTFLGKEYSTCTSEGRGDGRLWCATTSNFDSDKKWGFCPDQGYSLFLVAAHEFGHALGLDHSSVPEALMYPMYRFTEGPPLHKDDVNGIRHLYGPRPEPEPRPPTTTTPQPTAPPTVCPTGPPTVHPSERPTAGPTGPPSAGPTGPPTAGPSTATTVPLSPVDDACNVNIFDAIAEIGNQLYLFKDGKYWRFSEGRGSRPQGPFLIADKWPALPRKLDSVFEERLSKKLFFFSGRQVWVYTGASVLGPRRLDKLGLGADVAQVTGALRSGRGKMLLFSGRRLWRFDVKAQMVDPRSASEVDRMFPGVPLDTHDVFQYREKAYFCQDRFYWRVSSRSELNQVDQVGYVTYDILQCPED

Interstitial collagenase = target: T6, Interstitial collagenase (Homo sapiens, UniProt P03956); assay: Inhibition of human MMP-1
T6 sequence (P03956 whole entry): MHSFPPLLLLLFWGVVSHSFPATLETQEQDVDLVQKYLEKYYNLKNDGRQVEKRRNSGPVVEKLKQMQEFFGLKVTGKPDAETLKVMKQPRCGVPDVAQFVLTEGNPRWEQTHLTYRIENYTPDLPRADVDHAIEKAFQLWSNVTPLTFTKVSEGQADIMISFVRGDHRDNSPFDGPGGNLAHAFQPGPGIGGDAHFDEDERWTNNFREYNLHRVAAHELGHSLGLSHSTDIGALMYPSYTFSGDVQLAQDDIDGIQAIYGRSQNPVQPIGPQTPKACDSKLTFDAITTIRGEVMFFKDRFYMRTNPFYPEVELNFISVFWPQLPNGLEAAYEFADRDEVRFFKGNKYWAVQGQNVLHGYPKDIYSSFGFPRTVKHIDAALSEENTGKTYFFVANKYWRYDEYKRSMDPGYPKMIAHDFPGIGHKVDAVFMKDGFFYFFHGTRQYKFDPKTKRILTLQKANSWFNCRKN

[14] = target: T5, Matrix metalloproteinase-9; assay: Inhibition of human MMP-9 at 100 uM relative to control
Rattus norvegicus [15] = species: Rattus norvegicus; assay: Cardioprotective activity in myocardial ischemia/reperfusion induced Sprague-Dawley rat injury model assessed as improved coronary flow rate; type: functional
Rattus norvegicus [16] = species: Rattus norvegicus; assay: Cardioprotective activity in myocardial ischemia/reperfusion induced Sprague-Dawley rat injury model assessed as reduction in fibrillar collagen damage; type: functional; set-up: scale not given: the % may be the effect or the level left
Rattus norvegicus [17] = species: Rattus norvegicus; assay: Cardioprotective activity in myocardial ischemia/reperfusion induced Sprague-Dawley rat injury model assessed as improved RPP; type: functional
Rattus norvegicus [18] = species: Rattus norvegicus; assay: Cardioprotective activity in myocardial ischemia/reperfusion induced Sprague-Dawley rat injury model assessed as reduction in muscle damage; type: functional; set-up: scale not given: the % may be the effect or the level left
Rattus norvegicus [19] = species: Rattus norvegicus; assay: Cardioprotective activity in myocardial ischemia/reperfusion induced Sprague-Dawley rat injury model assessed as recovery of contractile function; type: functional
Mushroom tyrosinase [20] = target: T7, Mushroom tyrosinase (Agaricus bisporus, UniProt O42713+Q00024+C7FF04+C7FF05); assay: Inhibition of mushroom Diphenolase activity by Lineweaver-burk reciprocal plot analysis
Mushroom tyrosinase [21] = target: T7, Mushroom tyrosinase; assay: Inhibition of mushroom monophenolase
Mushroom tyrosinase [22] = target: T7, Mushroom tyrosinase; assay: Inhibition of mushroom diphenolase
[23] = target: T8, Mushroom tyrosinase (Agaricus bisporus) (UniProt O42713+Q00024+C7FF04+C7FF05); assay: Inhibition of mushroom monophenolase activity using L-DOPA as substrate preincubated with substrate followed by compound addition by Lineweaver-burk reciprocal plot analysis
[24] = target: T8, Mushroom tyrosinase (Agaricus bisporus); assay: Inhibition of mushroom Diphenolase activity using L-DOPA as substrate preincubated with substrate followed by compound addition by Lineweaver-burk reciprocal plot analysis
Mushroom tyrosinase [25] = target: T7, Mushroom tyrosinase; assay: Inhibition of mushroom monophenolase activity by Lineweaver-burk reciprocal plot analysis
Lethal factor = Lethal factor (Bacillus anthracis, UniProt P15917); assay: Inhibition of anthrax lethal factor
Lethal factor, sequence (P15917 whole entry): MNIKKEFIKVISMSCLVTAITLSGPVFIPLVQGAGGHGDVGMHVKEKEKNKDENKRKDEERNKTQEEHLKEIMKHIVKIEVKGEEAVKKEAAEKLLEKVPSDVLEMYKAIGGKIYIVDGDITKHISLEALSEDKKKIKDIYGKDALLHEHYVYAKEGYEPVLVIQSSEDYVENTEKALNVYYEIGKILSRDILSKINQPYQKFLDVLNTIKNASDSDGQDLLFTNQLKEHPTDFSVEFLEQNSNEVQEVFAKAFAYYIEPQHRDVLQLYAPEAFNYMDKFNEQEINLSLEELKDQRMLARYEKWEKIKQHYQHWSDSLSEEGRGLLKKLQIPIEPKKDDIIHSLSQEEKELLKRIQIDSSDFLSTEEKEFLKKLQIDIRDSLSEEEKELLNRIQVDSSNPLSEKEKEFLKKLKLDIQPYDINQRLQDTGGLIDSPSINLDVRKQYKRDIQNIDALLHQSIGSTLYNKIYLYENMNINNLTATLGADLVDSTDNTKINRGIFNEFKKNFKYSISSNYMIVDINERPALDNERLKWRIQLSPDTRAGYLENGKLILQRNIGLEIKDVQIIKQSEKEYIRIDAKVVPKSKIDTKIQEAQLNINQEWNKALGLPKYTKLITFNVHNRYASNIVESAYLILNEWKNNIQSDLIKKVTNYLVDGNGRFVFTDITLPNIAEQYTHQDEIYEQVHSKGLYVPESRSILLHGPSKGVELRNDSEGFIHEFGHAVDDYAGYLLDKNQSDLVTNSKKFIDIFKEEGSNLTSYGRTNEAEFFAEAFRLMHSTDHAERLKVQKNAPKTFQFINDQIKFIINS

[26] = target: 72 kDa type IV collagenase (Homo sapiens, UniProt P08253); assay: Inhibition of MMP-2 (unknown origin)
Stromelysin-1 [27] = target: T1, Stromelysin-1; assay: Inhibition of MMP-3 (unknown origin)
Target sequence in this assay (P08254 whole entry): as the sequence (P08254 whole entry) above

[28] = target: T5, Matrix metalloproteinase-9; assay: Inhibition of MMP-9 (unknown origin)
[29] = target: T5, Matrix metalloproteinase-9; assay: Inhibition of beta-glucosidase activated MMP-9 (unknown origin) relative to control; conditions: concentration not given here
Neutrophil collagenase [30] = target: T4, Neutrophil collagenase; assay: Inhibition of beta-glucosidase activated MMP-8 (unknown origin) relative to control; conditions: concentration not given here
Stromelysin-1 [31] = target: T1, Stromelysin-1; assay: Inhibition of human MMP-3
Target sequence in this assay (P08254 whole entry): as above

Acetylcholinesterase = Acetylcholinesterase (Electrophorus electricus, UniProt O42275); assay: Inhibition of Electrophorus electricus AChE
Acetylcholinesterase, sequence (O42275 whole entry): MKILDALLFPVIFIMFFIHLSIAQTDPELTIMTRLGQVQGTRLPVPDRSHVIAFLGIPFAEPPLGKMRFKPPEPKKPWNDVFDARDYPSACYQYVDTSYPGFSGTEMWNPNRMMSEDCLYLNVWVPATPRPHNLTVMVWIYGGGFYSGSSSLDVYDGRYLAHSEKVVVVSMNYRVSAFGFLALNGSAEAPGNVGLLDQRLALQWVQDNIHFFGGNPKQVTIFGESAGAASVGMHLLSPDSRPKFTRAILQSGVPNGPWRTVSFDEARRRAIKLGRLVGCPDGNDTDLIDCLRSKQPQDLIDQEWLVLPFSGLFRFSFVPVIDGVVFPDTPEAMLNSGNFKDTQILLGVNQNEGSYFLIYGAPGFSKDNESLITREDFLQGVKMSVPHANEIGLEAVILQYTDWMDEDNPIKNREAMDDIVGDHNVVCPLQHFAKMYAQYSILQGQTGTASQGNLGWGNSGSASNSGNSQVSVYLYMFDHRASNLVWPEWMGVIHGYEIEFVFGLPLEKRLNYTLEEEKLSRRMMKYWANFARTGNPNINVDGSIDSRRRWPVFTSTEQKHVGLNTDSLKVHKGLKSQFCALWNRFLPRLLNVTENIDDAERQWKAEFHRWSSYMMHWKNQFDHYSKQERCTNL

[32] = Antioxidant activity assessed as DPPH radical scavenging activity; type: functional
SH-SY5Y = assay: Protection against amyloid beta (1 to 42) induced toxicity in human SH-SY5Y cells assessed as increase in cell viability; type: functional
[33] = target: Amyloid-beta precursor protein (Homo sapiens) (UniProt P05067); assay: Inhibition of amyloid beta (1 to 42 ) (unknown origin) self aggregation at 100 uM relative to control

Amine oxidase [flavin-containing] B, sequence (P27338 whole entry): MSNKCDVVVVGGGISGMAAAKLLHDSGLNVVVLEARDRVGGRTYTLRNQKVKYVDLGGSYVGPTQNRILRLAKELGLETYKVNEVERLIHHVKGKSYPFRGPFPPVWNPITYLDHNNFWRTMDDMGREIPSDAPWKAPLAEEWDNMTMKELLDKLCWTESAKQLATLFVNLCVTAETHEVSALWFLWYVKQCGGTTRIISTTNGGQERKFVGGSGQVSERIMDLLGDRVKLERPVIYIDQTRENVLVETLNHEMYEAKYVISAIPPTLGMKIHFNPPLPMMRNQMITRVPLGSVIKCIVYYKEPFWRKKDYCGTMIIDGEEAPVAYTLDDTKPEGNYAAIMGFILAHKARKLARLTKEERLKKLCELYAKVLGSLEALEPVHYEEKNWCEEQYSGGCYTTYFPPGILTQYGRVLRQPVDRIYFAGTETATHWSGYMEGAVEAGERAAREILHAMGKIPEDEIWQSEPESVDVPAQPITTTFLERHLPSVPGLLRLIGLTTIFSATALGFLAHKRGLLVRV

Cc1cc(=O)c(O)c(CO)n1CCCn1cc(COc2cc3ccccc3oc2=O)nn1
IC50 [1]: 0.86 µM

CCCCCCCCn1ccc(=O)c(O)c1C
inhibition (Glycine max): 40%

Cc1occ(O)c(=O)c1C(=O)NCc1ccc(-c2ccccc2)cc1
inhibition (Stromelysin-1 [2]): 21%
inhibition [3]: 21%

[O-][n+]1ccccc1S [PYRITHIONE]
IC50 (Stromelysin-1 [4]): 20 µM
IC50 (Stromelysin-1 [5]): 35 µM

Oc1coccc1=S
inhibition [6]: > 90%
inhibition [7]: 93%
inhibition [8]: 90%

O=C(O)c1cccc(=S)n1O
selectivity ratio [9]: 8800
inhibition (Pseudomonas aeruginosa): 98%
Ki [10]: 0.013 µM

Cc1cc(=O)c(O)c(C(=O)NCc2ccc(-c3ccccc3)cc2)o1
IC50 [11]: 0.018 µM
IC50 (Collagenase 3): 4 µM
IC50 (Matrilysin): 25 µM
IC50 (Neutrophil collagenase [12]): 0.018 µM
IC50 [13]: 25 µM
IC50 (Interstitial collagenase): 25 µM

Cc1occ(O)c(=S)c1C(=O)NCc1ccc(-c2ccccc2)cc1
inhibition [14]: 54%

O=C(NCc1ccc(-c2ccccc2)cc1)c1cccc(=O)n1O
IC50 (Collagenase 3): 4 µM
IC50 (Matrilysin): 25 µM
IC50 (Neutrophil collagenase [12]): 0.018 µM
Activity (Rattus norvegicus [15]): 22%
IC50 [13]: 25 µM
Activity (Rattus norvegicus [16]): 60%
IC50 (Interstitial collagenase): 25 µM
Activity (Rattus norvegicus [17]): 23%
Activity (Rattus norvegicus [18]): 25%
Activity (Rattus norvegicus [19]): 80%

On1ccc2ccccc2c1=S
inhibition [7]: 93%
inhibition [8]: 90%

CCCCCCO/N=C/c1cc(=O)c(O)c[nH]1
Ki (Mushroom tyrosinase [20]): 24.84 µM
IC50 (Mushroom tyrosinase [21]): 2.04 µM
IC50 (Mushroom tyrosinase [22]): 13.89 µM
Kis [23]: 18.1 µM
Kis [24]: 18.1 µM
Ki (Mushroom tyrosinase [25]): 24.84 µM

[O-][n+]1ccccc1S
IC50 [10]: 0.908 µM
Ki [10]: 0.217 µM

Cn1cc(O)c(=O)cc1/C=C/C(=O)c1ccc(F)cc1
IC50 (Mushroom tyrosinase [21]): 3.07 µM
IC50 (Mushroom tyrosinase [22]): 17.05 µM

Oc1coc2ccccc2c1=S
inhibition [6]: > 90%
inhibition [7]: 93%

Cc1c(O)c(=S)ccn1Cc1ccc(-c2ccccc2)cc1
IC50 (Lethal factor): 3 µM
IC50 [26]: 1 µM
IC50 (Stromelysin-1 [27]): 4 µM
IC50 [28]: 2 µM

Cc1occc(=O)c1O[C@@H]1O[C@H](CO)[C@@H](O)[C@H](O)[C@H]1O
inhibition [29]: 73%
inhibition (Neutrophil collagenase [30]): 33%

Cc1c(O)c(=S)ccn1C
inhibition [8]: 90%

On1cc2ccccc2cc1=S
inhibition [6]: > 90%

Cc1cc(=O)c(O)c(CO)n1CCn1cc(COc2ccc3ccc(=O)oc3c2)nn1
IC50 [1]: 0.68 µM

CCCCCCCCO/N=C/c1cc(=O)c(O)c[nH]1
Ki (Mushroom tyrosinase [20]): 32.54 µM
IC50 (Mushroom tyrosinase [21]): 1.6 µM
IC50 (Mushroom tyrosinase [22]): 7.99 µM
Kis [23]: 21.3 µM
Kis [24]: 21.3 µM
Ki (Mushroom tyrosinase [25]): 32.54 µM

COc1ccc(C(=O)/C=C/c2cc(=O)c(O)c[nH]2)cc1OC
IC50 (Mushroom tyrosinase [21]): 2.75 µM
IC50 (Mushroom tyrosinase [22]): 19.3 µM

Cc1cc(=O)c(O)c(C(=O)NCc2ccc(-c3ccccc3)cc2)n1C
IC50 (Collagenase 3): 4 µM
IC50 (Matrilysin): 25 µM
IC50 (Neutrophil collagenase [12]): 1.2 µM
IC50 [13]: 25 µM
IC50 (Interstitial collagenase): 25 µM

On1ccc2[nH]cnc2c1=S
inhibition [8]: 90%

O=C(O)c1c[nH]c2ccccc2c1=S
inhibition [7]: 93%

Cn1ccc(=O)c(O)c1C(=O)NCc1ccc(-c2ccccc2)cc1
IC50 (Collagenase 3): 4 µM
IC50 (Matrilysin): 25 µM
IC50 (Neutrophil collagenase [12]): 1.2 µM
IC50 [13]: 25 µM
IC50 (Interstitial collagenase): 25 µM

CCCCCCCCn1cc(O)c(=O)cc1COC(=O)[C@H](N)Cc1ccccc1
IC50 (Mushroom tyrosinase [21]): 12.6 µM
IC50 (Mushroom tyrosinase [22]): 4.01 µM

O=C(NCc1ccc(-c2ccccc2)cc1)c1occc(=O)c1O
IC50 [11]: 0.018 µM
IC50 (Stromelysin-1 [31]): 0.077 µM
IC50 (Collagenase 3): 4 µM
IC50 (Matrilysin): 25 µM
IC50 (Neutrophil collagenase [12]): 0.018 µM
IC50 [13]: 25 µM
IC50 (Interstitial collagenase): 25 µM

Cc1c(O)c(=O)ccn1C
inhibition ([23]; concentration not given here): 2%
inhibition (Glycine max): 70%

CCCNC(=O)CCC(=O)NCc1c(O)c(=O)cc(C)n1C
inhibition (Glycine max): 10%

S=c1cc[nH]c2[nH]cnc12
inhibition [8]: 90%

Cc1cc(=S)c(O)c(C(=O)NCc2ccc(-c3ccccc3)cc2)o1
IC50 (Lethal factor): 13.9 µM

Cc1c(OCc2ccccc2)c(=O)ccn1-c1ccc(CC(=O)Nc2ccc(Cc3nc4ccccc4s3)cc2)cc1
IC50 (Acetylcholinesterase): 14.7 µM

Cc1c(OCc2ccccc2)c(=O)ccn1CCCC(=O)Nc1ccc(Cc2nc3ccccc3s2)cc1
IC50 (Acetylcholinesterase): 14.7 µM

CS(=O)(=O)Cc1cccc(=S)n1O
inhibition [6]: > 90%
inhibition [7]: 93%
inhibition [8]: 90%

Cc1c(O)c(=O)ccn1CCCC(=O)N1CCCC1c1nc2ccccc2s1 (stereo not given)
EC50 [32]: 247 µM

Cc1c(OCc2ccccc2)c(=O)ccn1-c1ccc(CC(=O)Nc2ccc(-c3nc4ccccc4s3)cc2)cc1
Activity (SH-SY5Y): 100%
inhibition [33]: 68%
IC50 (Acetylcholinesterase): 14.7 µM
